According to patent US9733254B2, “Methods and apparatus for the in vitro modelling of drug administration” (THE UNIVERSITY OF BATH, priority 2012, dated 2017):

Key:
[1] = Diffusion through the DERMAROLLER-modified 14000 MWCO dialysis membrane; format: physicochemical; settings: modified membrane with cut off of 14000 MWCO
Source text: As an example, the membrane used in the system was Biodesing dialysis tubing with a molecular weight cut off diameter of 14000 Da. A 3 cm piece of the tubing was cut and the edges were removed to form two sheets of membrane. These sheets of membrane, whilst not separated from each other, were fully hydrated by soaking in deionised water and subsequently placed on Styrofoam covered with aluminium foil. The membrane permeability was then modified using a DERMAROLLER microneedle device. The membrane used can be transparent. […] In contrast, for rhodamine (MW~500 Da) the diffusion through the same membrane took place in one phase. The holes can be made with a DERMAROLLER microneedle device, or with any other method producing size and spatial distribution of holes suitable for the application. The diameter of the holes should be between 0.1 and a 10 micrometers and the spacing between any two adjacent holes between 0.1 and 10 mm.
As an example (FIG. 4), for a series of fluorescent small organic molecules (methylene blue and rhodamine) and fluorescently labelled dextrans with molecular weights between 4 kDa and 2 MDa, the rate constant of diffusion (k, [min^−1]) through the membranes after the modification followed the equation k=−0.01362 log10 (MW of the compound)+0.06065. (R^2=0.9996)

[2] = Release of excipient from the simulated injection site, HPLC of bath aliquots; format: in vitro ADME; settings: excipient of generic insulin formulation, 0.5 ml injected; buffer in the cassette
Method: Shortly after injection, the protein solubility level decreased as indicated by the drop in % T. As the environment within the cassette equilibrated with the surrounding physiological conditions and the pH shifted towards 7.4, the protein re-solubilised as indicated by the increase in the % T level. The release profile of an excipient, m-cresol, from the injection site was determined from aliquots taken from the surrounding buffer bath at different time points by HPLC following the method specified in “Biodegradation characterisation and kinetics of m-cresol by Lysinibacillus cresolivorans” in Water SA (Online) vol. 37 no. 1 Pretoria January 2011.

mode of diffusion through the modified membrane [1]	Compound	time until all the excipient in the injected formulation has left the injection site [2]
one phase	rhodamine	
	Cc1cccc(O)c1 [m-cresol]	less than 50 minutes
two phase diffusion	CN(C)c1ccc2nc3ccc(=[N+](C)C)cc-3sc2c1 [methylene blue]	
